Measured values as given in PubChem BioAssay AID328 (DTP/NCI, 2004).
Inconclusive results and toxic doses are left out. Rule for the calls: active = survival T/C of 150% or more; inactive = T/C below 125% in these data.

Tested on: BDF1 mice, P388 leukemia ip, median survival T/C
Test: NCI In Vivo Anticancer Drug Screen. Data for tumor model P388 Leukemia (intraperitoneal) in B6D2F1 (BDF1) mice
Details: endpoint: median survival time, higher = longer survival
How it was run: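 Compound-treated tumour-bearing mice were compared with vehicle-treated controls. Survival was recorded, and the value is the treated-group measurement divided by the control-group measurement (T/C).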

[1] = dose: 100.0 mg/kg/injection, schedule: Q01DX009 (ip), vehicle: Klucel (hydroxypropylcellulose) (HPC)
[2] = dose: 100.0 mg/kg/injection, schedule: Q04DX003 (ip), vehicle: Klucel (hydroxypropylcellulose) (HPC)
[3] = dose: 200.0 mg/kg/injection, schedule: Q01DX009 (ip), vehicle: Klucel (hydroxypropylcellulose) (HPC)
[4] = dose: 200.0 mg/kg/injection, schedule: Q04DX003 (ip), vehicle: Klucel (hydroxypropylcellulose) (HPC)
[5] = dose: 400.0 mg/kg/injection, schedule: Q01DX009 (ip), vehicle: Klucel (hydroxypropylcellulose) (HPC)
[6] = dose: 200.0 mg/kg/injection, schedule: Q04DX003 (ip), vehicle: saline with Tween-80
[7] = dose: 12.5 mg/kg/injection, schedule: Q04DX003 (ip), vehicle: saline with Tween-80
[8] = dose: 25.0 mg/kg/injection, schedule: Q04DX003 (ip), vehicle: saline with Tween-80
[9] = dose: 50.0 mg/kg/injection, schedule: Q04DX003 (ip), vehicle: saline with Tween-80
[10] = dose: 100.0 mg/kg/injection, schedule: Q04DX003 (ip), vehicle: saline with Tween-80

Measured: T/C

O=[N+]([O-])c1ccc(Oc2ccc(C3N(c4ccccc4)CCN3c3ccccc3)cc2)c([N+](=O)[O-])c1
inactive: dose: 12.5 mg/kg/injection, schedule: Q01DX009 (ip), vehicle: water 99 % of control | dose: 25.0 mg/kg/injection, schedule: Q01DX009 (ip), vehicle: water 89 % of control | dose: 50.0 mg/kg/injection, schedule: Q01DX009 (ip), vehicle: water 99 % of control | dose: 100.0 mg/kg/injection, schedule: Q01DX009 (ip), vehicle: water 90 % of control | dose: 200.0 mg/kg/injection, schedule: Q01DX009 (ip), vehicle: water 91 % of control

CC(=O)Nc1nncs1
inactive: dose: 100.0 mg/kg/injection, schedule: Q01DX009 (ip), vehicle: saline sonified 113 % of control | dose: 200.0 mg/kg/injection, schedule: Q01DX009 (ip), vehicle: saline sonified 109 % of control

O=c1[nH]cc(CCc2ccccc2)c(=O)[nH]1
inactive: dose: 100.0 mg/kg/injection, schedule: Q01DX001 (ip), vehicle: Klucel (hydroxypropylcellulose) (HPC) 105 % of control | [1] 100 % of control | [2] 104 % of control | [3] 88 % of control | [4] 100 % of control | dose: 400.0 mg/kg/injection, schedule: Q01DX001 (ip), vehicle: Klucel (hydroxypropylcellulose) (HPC) 105 % of control | [5] 92 % of control

C[C@]12CC[C@H](O)CC1=CC[C@@H]1[C@@H]2CC[C@]2(C)c3nc4ccccc4cc3C[C@@H]12
inactive: [6] 95 % of control

CCCCC(=O)NN
inactive: [7] 99 % of control | [8] 103 % of control | [9] 110 % of control | [10] 100 % of control | [6] 91 % of control

Cn1/c2cc/c1=C(\c1ccc(S(=O)(=O)O)cc1)c1ccc([n-]1)/C(c1ccc(S(=O)(=O)O)cc1)=c1/cc/c([nH]1)=C(\c1ccc(S(=O)(=O)O)cc1)c1ccc([n-]1)/C=2c1ccc(S(=O)(=O)O)cc1.O.O=S(=O)(O)C(F)(F)F.[Cu+2]
inactive: dose: 6.25 mg/kg/injection, schedule: Q01DX009 (ip), vehicle: saline 101 % of control | dose: 50.0 mg/kg/injection, schedule: Q01DX009 (ip), vehicle: saline 101 % of control

CC(=O)Oc1ccc2c(c1)C(=O)C(Br)C1C2CCC2(C)C(OC(C)=O)CCC12 (stereo not given)
inactive: dose: 50.0 mg/kg/injection, schedule: Q01DX010 (sc), vehicle: steriod suspending solution 95 % of control | dose: 400.0 mg/kg/injection, schedule: Q01DX010 (sc), vehicle: steriod suspending solution 90 % of control

CCCCCCCCCCCCCCCCCOC(=O)CCCCCCCCCCCCCCCCC
inactive: [8] 105 % of control | [9] 105 % of control | [10] 100 % of control

Nc1cc(S(=O)(=O)c2ccc(O)c(N)c2)ccc1O
inactive: dose: 100.0 mg/kg/injection, schedule: Q01DX009 (ip), vehicle: saline with Tween-80 104 % of control | [10] 100 % of control | dose: 200.0 mg/kg/injection, schedule: Q01DX009 (ip), vehicle: saline with Tween-80 108 % of control | [6] 95 % of control | dose: 400.0 mg/kg/injection, schedule: Q01DX009 (ip), vehicle: saline with Tween-80 87 % of control | dose: 400.0 mg/kg/injection, schedule: Q04DX003 (ip), vehicle: saline with Tween-80 87 % of control

CCCCCCCCCCCCCCCCCC(=O)NN
inactive: [7] 105 % of control | [8] 98 % of control | [9] 98 % of control

C[C@]12CCC(=O)C=C1CC[C@H]1[C@@H]3CCC(=O)O[C@@]3(C)CC(=O)[C@@]12F
inactive: [1] 111 % of control | [2] 90 % of control | [3] 96 % of control | [4] 109 % of control | [5] 100 % of control | dose: 400.0 mg/kg/injection, schedule: Q04DX003 (ip), vehicle: Klucel (hydroxypropylcellulose) (HPC) 86 % of control

CC1C(=O)COCC1=O
inactive: dose: 100.0 mg/kg/injection, schedule: Q01DX001 (ip), vehicle: saline with Tween-80 102 % of control | dose: 200.0 mg/kg/injection, schedule: Q01DX001 (ip), vehicle: saline with Tween-80 101 % of control | dose: 400.0 mg/kg/injection, schedule: Q01DX001 (ip), vehicle: saline with Tween-80 98 % of control
